According to publication PMC7665192, “A natriuretic peptide from Arabidopsis thaliana (AtPNP-A) can modulate catalase 2 activity” (Scientific Reports, 2020):
One block for each molecule: values may come before it. Positions of bridges follow the written chain, without caps; N, C: chain ends. No end group written: not given here.

Legend:
[1] = test system: cGMP; details: cited from earlier work
Description: Similarly, identification of novel receptors targeted by an increasing number of peptidic plant hormones discovered in the last few decades[8],[9] is anticipated. One of those, the plant natriuretic peptides (PNPs), are a group of systemically mobile signals[10] that have a role in the maintenance of salt and water balance[11],[12]. An A. thaliana PNP, termed AtPNP-A (At2g18660; Q9ZV52), has been implicated in several physiological processes ranging from the regulation of stomatal aperture, osmoticum-dependent volume changes[13],[14] and modulation of developmental stage- and tissue-specif ... || A PNP_CAT interaction in plant responses to infecting pathogens is not surprising. CATs commonly function to down-regulate ROS during ABA-induced stomatal closure, and ABA-induced stomatal closure can be inhibited by removal of H2O2 via CAT2[73],[74]. […] Therefore, it is tempting to speculate that AtPNP-A modulates the effect of ABA on stomatal aperture through the interaction w ...

[2] = test system: guard cell; details: cited from earlier work
Description: A PNP_CAT interaction in plant responses to infecting pathogens is not surprising. CATs commonly function to down-regulate ROS during ABA-induced stomatal closure, and ABA-induced stomatal closure can be inhibited by removal of H2O2 via CAT2[73],[74]. […] Therefore, it is tempting to speculate that AtPNP-A modulates the effect of ABA on stomatal aperture through the interaction w ...

[3] = test system: plant pathogen; details: exogenous H2O2; cited from earlier work
[4] = test system: CAT2 transcript; details: exogenous application; cited from earlier work
Description: (§1) It is also conceivable that modulation of CAT2 activity by AtPNP-A may not only have implications for plant biotic stress tolerance but may also result in changes in responses to abiotic stress. Activity of CAT2 is required for decomposition of photorespiration-derived H2O2 preventing redox perturbation under ambient growth conditions[59] while CAT2 deficiency causes a defective photorespiration phenotype including suppressed growth[58],[59] and accumulation of H2O2 in leaves. During senescence suppression of CAT2 function, mediated by G-BOX BINDING FACTOR1 (GBF1)[76], decreases CAT2 activ ...

[5] = test system: AtPNP-A-deficient seedlings; details: cited from earlier work
Description: as §1

[6] = molecular target: T1, bovine liver CAT (C-40; Sigma) (bovine, UniProt P00432 1-527); test: SPR; Biacore T100, 20 °C, flow 100 μL/min; bovine liver CAT amine-coupled to Series S CM5 chip, pAtPNP-A at 3.78 μM and consecutive twofold dilutions (11 injections); regeneration with glycine pH 2.0; kinetic analysis; details: both partners purified
T1 construct: catalase from bovine liver; also called bovine CAT; bovine liver catalase; source: bought: Sigma (C-40), bovine liver
T1 sequence (looked up): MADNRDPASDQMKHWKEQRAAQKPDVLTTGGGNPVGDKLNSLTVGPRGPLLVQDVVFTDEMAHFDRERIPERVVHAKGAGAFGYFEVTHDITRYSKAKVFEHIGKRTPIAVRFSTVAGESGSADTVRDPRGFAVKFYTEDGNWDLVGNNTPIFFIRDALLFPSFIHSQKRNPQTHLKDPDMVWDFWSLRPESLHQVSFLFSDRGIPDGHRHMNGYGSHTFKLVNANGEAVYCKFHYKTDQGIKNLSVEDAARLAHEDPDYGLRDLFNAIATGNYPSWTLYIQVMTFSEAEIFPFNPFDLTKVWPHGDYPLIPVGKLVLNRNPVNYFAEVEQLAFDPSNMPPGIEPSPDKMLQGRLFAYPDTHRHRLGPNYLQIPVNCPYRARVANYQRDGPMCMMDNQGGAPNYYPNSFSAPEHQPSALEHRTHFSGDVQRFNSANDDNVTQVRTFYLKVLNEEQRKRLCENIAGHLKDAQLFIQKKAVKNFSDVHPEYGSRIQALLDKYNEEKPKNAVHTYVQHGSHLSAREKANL

[7] = molecular target: T2, recombinant catalase 2 (rCAT2), N-terminally 6xHis-tagged (A. thaliana, UniProt P25819 1-492); test: SPR; Biacore T100, 20 °C; His-tagged rCAT2 immobilised on the NTA sensor chip (app. 4,500 RU), peptides injected at the same concentration; unmodified reference surface; details: both partners purified
T2 construct: catalase 2 (CAT2), A. thaliana; held on the NTA chip by its His tag; also called CAT2 recombinant protein; His-tagged rCAT2; source: E. coli BL21 (DE3) One Shot, purified (Ni-NTA beads, HisTrap HP column); not shown: 6xHis, N-terminal, kept
T2 sequence (looked up): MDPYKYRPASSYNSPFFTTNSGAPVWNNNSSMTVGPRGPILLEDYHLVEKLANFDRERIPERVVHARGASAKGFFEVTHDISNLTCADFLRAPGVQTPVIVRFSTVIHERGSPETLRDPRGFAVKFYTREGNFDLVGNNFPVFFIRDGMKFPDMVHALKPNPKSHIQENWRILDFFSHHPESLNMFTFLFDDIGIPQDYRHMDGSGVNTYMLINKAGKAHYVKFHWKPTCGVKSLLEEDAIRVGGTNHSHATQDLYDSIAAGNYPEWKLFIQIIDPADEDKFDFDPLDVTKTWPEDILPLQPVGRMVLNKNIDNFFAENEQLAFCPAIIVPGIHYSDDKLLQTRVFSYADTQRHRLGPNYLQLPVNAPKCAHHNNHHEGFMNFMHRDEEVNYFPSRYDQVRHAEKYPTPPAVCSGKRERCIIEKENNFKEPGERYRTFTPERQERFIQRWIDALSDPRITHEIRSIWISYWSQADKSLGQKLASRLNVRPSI

Molecule: CC1=CC(=O)CC(C)(C)[C@@]1(O)/C=C/C(C)=C\C(=O)O [ABA, abscisic acid, reference compound]
Effect of ABA on AtPNP-A-dependent cGMP increases [1]: no effect
Effect of ABA on AtPNP-A-dependent guard cell volume increases [2]: no effect

Molecule: OO [H2O2, hydrogen peroxide]
Plant pathogen resistance [3]: enhances plant pathogen resistance
CAT2 transcript [4]: Increases in CAT2 transcript

Molecule: C[n+]1ccc(-c2cc[n+](C)cc2)cc1 [methyl viologen]
CAT2 transcript [4]: Increases in CAT2 transcript
Chlorosis in AtPNP-A-deficient seedlings [5]: extensive chlorosis

Kd [6]: 86 nM
binding result [7]: binds
B1: pAtPNP-A, synthetic peptide with the active region of AtPNP-A, as used in SPR, ITC and the catalase activity assay (peptide, UniProt Q9ZV52 33-66, looked up)
peptide: YDPPYTRSACYGTQRETLVVGVKNNLWQNGRACG
modifications: disulfide 10-33 (inferred); not fully specified
notes: AtPNP-A (plant natriuretic peptide A), A. thaliana, active region, amino acids 33-66; peptides were made with or without a C-terminal biotin tag; also called biologically active fragment of AtPNP-A; source: synthetic peptide (GenScript, purity > 95%)
